Patent US20240158446A1, “CYCLIC COMPOUND HAVING SELECTIVE INHIBITORY ACTION ON KRAS OVER HRAS AND NRAS” (CHUGAI SEIYAKU KABUSHIKI KAISHA, priority 2021, published 2024)
*1 amine or outer side, *2 acyl side, *3 side chain or, on linkers, in order; H or OH if unused. Where a SMILES comes first, the peptide text is derived from it. Bridges are numbered along the chain shown (N, C = ends). [ ]: non-standard residue; d: D form. The star is where a group is joined. hPhe(3-Cl-4-CF3) = N[C@@H](CCc1ccc(C(F)(F)F)c(Cl)c1)C(=O)O; NPrPhe(4-CF3) = CCCN[C@@H](Cc1ccc(C(F)(F)F)cc1)C(=O)O; Abu(4,4,4-F3) = N[C@@H](CC(F)(F)F)C(=O)O; NMeGly(cPent) = CN[C@H](C(=O)O)C1CCCC1; X44 = CC1(C)CN([*:1])[C@@H]1C(=O)[*:2]; Aze(3S-Me) = C[C@H]1CN[C@@H]1C(=O)O; NMeD = CN[C@@H](CC(=O)O)C(=O)O; NMeL = CN[C@@H](CC(C)C)C(=O)O; hPip = O=C(O)[C@@H]1CCCCCN1; Pip = O=C(O)[C@@H]1CCCCN1; Morpholide = C1CN(*)CCO1; Ac5c = NC1(C(=O)O)CCCC1; Aze = O=C(O)[C@@H]1CCN1; Abu = CC[C@H](N)C(=O)O; NEtG = CCNCC(=O)O; Sar = CNCC(=O)O

What was measured:
[1] = target: GDP-bound NRAS wild-type protein (Homo sapiens, UniProt P01111); assay: Binding to NRAS by surface plasmon resonance (SPR), Single Cycle Kinetics; conditions: SPR, GDP-bound NRAS wild-type protein vs GDP-bound KRAS wild-type protein
[2] = target: GDP-bound HRAS wild-type protein (Homo sapiens, UniProt P01112); assay: Binding to HRAS by surface plasmon resonance (SPR), Single Cycle Kinetics; conditions: SPR, GDP-bound HRAS wild-type protein vs GDP-bound KRAS wild-type protein
[3] = system: human lung cancer strain NCI-H441;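 note: cell proliferation inhibition after four days measured by CellTiter-Glo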

Chain of GDP-bound HRAS wild-type protein (P01112 whole entry): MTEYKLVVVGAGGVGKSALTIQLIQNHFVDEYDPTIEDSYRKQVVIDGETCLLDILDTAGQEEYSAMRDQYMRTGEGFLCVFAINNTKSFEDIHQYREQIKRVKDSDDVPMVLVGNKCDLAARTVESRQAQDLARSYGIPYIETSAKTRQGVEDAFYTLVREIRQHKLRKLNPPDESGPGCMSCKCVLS
Chain of GDP-bound NRAS wild-type protein (P01111 whole entry): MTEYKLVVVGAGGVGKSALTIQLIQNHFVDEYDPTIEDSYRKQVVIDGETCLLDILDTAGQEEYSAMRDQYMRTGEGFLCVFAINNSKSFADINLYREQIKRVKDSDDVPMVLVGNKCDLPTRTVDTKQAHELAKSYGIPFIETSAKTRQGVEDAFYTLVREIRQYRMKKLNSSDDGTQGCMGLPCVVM

SMILES	NRAS/KRAS (ratio of KD value for NRAS to KD value for KRAS) [1]	HRAS/KRAS (ratio of KD value for HRAS to KD value for KRAS) [2]	IC50 [3]
CCCN1C(=O)CN(C)C(=O)[C@@H]2[C@@H](C)CN2C(=O)[C@H]([C@@H](C)CC)NC(=O)[C@H](CC(C)C)N(C)C(=O)C[C@@H](C(=O)N2CCOCC2)N(C)C(=O)[C@H](C2CCCC2)N(C)C(=O)C2(CCCC2)NC(=O)[C@@H]2CCCN2C(=O)[C@H](CCc2ccc(C(F)(F)F)c(Cl)c2)NC(=O)CN(C)C(=O)[C@@H]1Cc1ccc(C(F)(F)F)cc1 [PP0258] ([NMeL]I[Aze(3S-Me)][Sar][NPrPhe(4-CF3)][Sar][hPhe(3-Cl-4-CF3)]P[Ac5c][NMeGly(cPent)][NMeD]-Morpholide; lactam N-11)	B (a compound having 3 or more and less than 10 is denoted as B)	C (A compound having a KD ratio of 0.1 or more and less than 3 is denoted as C)	11.3 nM
CCCN1C(=O)[C@@H]2CCN2C(=O)[C@H]2N(CC2(C)C)C(=O)[C@H]([C@@H](C)CC)NC(=O)[C@H](CC(C)C)N(C)C(=O)C[C@@H](C(=O)N2CCOCC2)N(C)C(=O)[C@H](C2CCCC2)N(C)C(=O)C2(CCCC2)NC(=O)[C@@H]2CCCN2C(=O)[C@H](CCc2ccc(C(F)(F)F)c(Cl)c2)NC(=O)CN(C)C(=O)[C@@H]1Cc1ccc(C(F)(F)F)cc1 [PP0277] ([NMeL]I[X44][Aze][NPrPhe(4-CF3)][Sar][hPhe(3-Cl-4-CF3)]P[Ac5c][NMeGly(cPent)][NMeD]-Morpholide; lactam N-11)	C (A compound having a KD ratio of 0.1 or more and less than 3 is denoted as C)	C (A compound having a KD ratio of 0.1 or more and less than 3 is denoted as C)	6.7 nM
CCCN1C(=O)CN(C)C(=O)CN(CC)C(=O)[C@H]([C@@H](C)CC)NC(=O)[C@H](CC(C)C)N(C)C(=O)C[C@@H](C(=O)N2CCOCC2)N(C)C(=O)[C@H](C2CCCC2)N(C)C(=O)C2(CCCC2)NC(=O)[C@@H]2CCCCN2C(=O)[C@H](CCc2ccc(C(F)(F)F)c(Cl)c2)NC(=O)CN(C)C(=O)[C@@H]1Cc1ccc(C(F)(F)F)cc1 [PP0297] ([NMeL]I[NEtG][Sar][NPrPhe(4-CF3)][Sar][hPhe(3-Cl-4-CF3)][Pip][Ac5c][NMeGly(cPent)][NMeD]-Morpholide; lactam N-11)	B (a compound having 3 or more and less than 10 is denoted as B)	C (A compound having a KD ratio of 0.1 or more and less than 3 is denoted as C)	74.3 nM
CCCN1C(=O)CN(C)C(=O)[C@@H]2CCN2C(=O)[C@H]([C@@H](C)CC)NC(=O)[C@@H]2CCCCCN2C(=O)C[C@@H](C(=O)N2CCOCC2)N(C)C(=O)[C@H](C2CCCC2)N(C)C(=O)C2(CCCC2)NC(=O)[C@@H]2CCCN2C(=O)[C@H](CCc2ccc(C(F)(F)F)c(Cl)c2)NC(=O)CN(C)C(=O)[C@@H]1Cc1ccc(C(F)(F)F)cc1 [PP0302] ([hPip]I[Aze][Sar][NPrPhe(4-CF3)][Sar][hPhe(3-Cl-4-CF3)]P[Ac5c][NMeGly(cPent)][NMeD]-Morpholide; lactam N-11)	B (a compound having 3 or more and less than 10 is denoted as B)	C (A compound having a KD ratio of 0.1 or more and less than 3 is denoted as C)	126 nM
CCCN1C(=O)CN(C)C(=O)[C@@H]2CCN2C(=O)[C@H](CC)NC(=O)[C@H](CC(C)C)N(C)C(=O)C[C@@H](C(=O)N2CCOCC2)N(C)C(=O)[C@H](C2CCCC2)N(C)C(=O)C2(CCCC2)NC(=O)[C@@H]2CCCN2C(=O)[C@H](CCc2ccc(C(F)(F)F)c(Cl)c2)NC(=O)CN(C)C(=O)[C@@H]1Cc1ccc(C(F)(F)F)cc1 [PP0303] ([NMeL][Abu][Aze][Sar][NPrPhe(4-CF3)][Sar][hPhe(3-Cl-4-CF3)]P[Ac5c][NMeGly(cPent)][NMeD]-Morpholide; lactam N-11)	B (a compound having 3 or more and less than 10 is denoted as B)	B (a compound having 3 or more and less than 10 is denoted as B)	349 nM
CCCN1C(=O)CN(C)C(=O)[C@@H]2CCN2C(=O)[C@H](CC(F)(F)F)NC(=O)[C@H](CC(C)C)N(C)C(=O)C[C@@H](C(=O)N2CCOCC2)N(C)C(=O)[C@H](C2CCCC2)N(C)C(=O)C2(CCCC2)NC(=O)[C@@H]2CCCN2C(=O)[C@H](CCc2ccc(C(F)(F)F)c(Cl)c2)NC(=O)CN(C)C(=O)[C@@H]1Cc1ccc(C(F)(F)F)cc1 [PP0304] ([NMeL][Abu(4,4,4-F3)][Aze][Sar][NPrPhe(4-CF3)][Sar][hPhe(3-Cl-4-CF3)]P[Ac5c][NMeGly(cPent)][NMeD]-Morpholide; lactam N-11)	B (a compound having 3 or more and less than 10 is denoted as B)	B (a compound having 3 or more and less than 10 is denoted as B)	112 nM
